Measured values: ChEMBL document CHEMBL1127892, “(6-oxo-3-pyridazinyl)-benzimidazoles as potent angiotensin II receptor antagonists” (Bioorg Med Chem Lett, 1994)

Legend:
[1] = target: T1, Type-1 angiotensin II receptor (Bos taurus, UniProt P25104); experiment: Concentration required for 50% inhibition of binding against Angiotensin II receptor, type 1 in bovine adrenal cortex; format: tissue-based
T1 sequence (P25104 whole entry): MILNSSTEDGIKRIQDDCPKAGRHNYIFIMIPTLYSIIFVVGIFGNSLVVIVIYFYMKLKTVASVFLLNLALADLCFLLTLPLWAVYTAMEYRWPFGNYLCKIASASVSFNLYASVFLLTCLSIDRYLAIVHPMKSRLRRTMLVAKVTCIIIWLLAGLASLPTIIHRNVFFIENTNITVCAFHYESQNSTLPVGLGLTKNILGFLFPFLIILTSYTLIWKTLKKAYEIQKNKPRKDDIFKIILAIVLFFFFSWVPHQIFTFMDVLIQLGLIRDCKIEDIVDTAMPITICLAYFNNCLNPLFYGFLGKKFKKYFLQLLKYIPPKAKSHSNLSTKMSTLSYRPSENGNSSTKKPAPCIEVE

[2] = target: T2, Type-1 angiotensin II receptor (Oryctolagus cuniculus, UniProt P34976); experiment: Inhibitory activity against Angiotensin II receptor, type 1 induced contractions in isolated rabbit aortic rings; format: functional
T2 sequence (P34976 whole entry): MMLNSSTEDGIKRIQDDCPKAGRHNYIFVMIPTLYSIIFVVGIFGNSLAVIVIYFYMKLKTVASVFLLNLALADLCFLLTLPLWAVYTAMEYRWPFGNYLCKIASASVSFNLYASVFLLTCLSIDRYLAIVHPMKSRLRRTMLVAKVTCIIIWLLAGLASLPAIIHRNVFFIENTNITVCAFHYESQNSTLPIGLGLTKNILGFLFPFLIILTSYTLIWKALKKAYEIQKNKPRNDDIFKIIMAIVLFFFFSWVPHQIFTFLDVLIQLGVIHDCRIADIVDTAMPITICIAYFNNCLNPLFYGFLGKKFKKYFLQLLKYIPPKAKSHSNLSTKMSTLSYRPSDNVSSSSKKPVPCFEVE

[3] = target: T3, Angiotensin II receptor (AT-1) type-1 (Rattus norvegicus, UniProt P29089+P25095); experiment: Concentration required for 50% inhibition of binding against Angiotensin II receptor, type 1 in rat adrenal cortex; format: tissue-based
T3 sequence (P29089 whole entry): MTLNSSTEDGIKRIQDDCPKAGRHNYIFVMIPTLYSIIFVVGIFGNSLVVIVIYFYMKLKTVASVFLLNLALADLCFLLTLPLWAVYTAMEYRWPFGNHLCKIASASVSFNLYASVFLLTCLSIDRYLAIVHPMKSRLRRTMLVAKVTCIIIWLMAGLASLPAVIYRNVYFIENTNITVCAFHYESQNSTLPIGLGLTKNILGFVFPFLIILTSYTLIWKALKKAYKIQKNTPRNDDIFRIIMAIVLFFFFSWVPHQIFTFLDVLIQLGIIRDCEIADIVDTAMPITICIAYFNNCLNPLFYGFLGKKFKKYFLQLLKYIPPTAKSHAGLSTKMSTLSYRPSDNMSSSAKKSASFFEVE
T3 sequence (P25095 whole entry): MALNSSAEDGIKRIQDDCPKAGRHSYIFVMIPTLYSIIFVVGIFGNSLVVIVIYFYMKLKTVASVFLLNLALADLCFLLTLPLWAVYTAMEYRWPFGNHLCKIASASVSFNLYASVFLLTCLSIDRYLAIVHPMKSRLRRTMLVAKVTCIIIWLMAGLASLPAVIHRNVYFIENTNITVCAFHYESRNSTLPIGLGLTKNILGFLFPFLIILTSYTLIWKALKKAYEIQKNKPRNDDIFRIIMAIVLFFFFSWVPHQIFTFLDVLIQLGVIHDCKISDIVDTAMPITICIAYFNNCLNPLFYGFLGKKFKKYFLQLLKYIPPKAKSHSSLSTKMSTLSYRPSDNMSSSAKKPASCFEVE

[4] = target: T3, Angiotensin II receptor (AT-1) type-1; experiment: In vivo percent inhibition of Angiotensin II receptor, type 1 induced increase in diastolic blood pressure in pithed rat at 3 mg/kg i.d.; format: functional, organism-based, Artery; set-up: dose 3 mg/kg, route intraduodenal

**Q.** With CCCCc1nc2ccc(C3=NNC(=O)CC3C)cc2[nH]1 (stereo unspecified) as the compound, how does the IC50 [1] read?
**A.** > 1000 µM

**Q.** What does the source list for CCc1nc2ccc(C3=NN(CC(=O)N(C)C)C(=O)CC3)cc2n1Cc1ccc(-c2ccccc2-c2nn[n-]n2)cc1.[K+]?
**A.** IC50 [2]: 0.003 µM; IC50 [3]: 0.0016 µM

**Q.** CCCCc1nc2ccc(C3=NNC(=O)CC3C)cc2n1Cc1ccc(-c2ccccc2-c2nn[nH]n2)cc1 (stereo unspecified) was tested. Which IC50 [1] did it give?
**A.** 0.022 µM

**Q.** And the IC50 [3]?
**A.** 0.0063 µM

**Q.** With CCCCc1nc2ccc(C3=NN(CC(=O)N(C)C)C(=O)CC3C)cc2n1Cc1ccc(-c2ccccc2-c2nn[n-]n2)cc1.[K+] (stereo unspecified) as the compound, how does the IC50 [3] read?
**A.** 0.0028 µM

**Q.** For CN(C)C(=O)CN1N=C(c2ccc3nc(C4CC4)n(Cc4ccc(-c5ccccc5-c5nn[n-]n5)cc4)c3c2)CCC1=O.[K+], which IC50 [2] is on record?
**A.** 0.002 µM

**Q.** And the IC50 [3]?
**A.** 0.0036 µM

**Q.** Which Inhibition [4] does the source give for CC1CC(=O)N(CC(=O)N(C)C)N=C1c1ccc2nc(C3CC3)n(Cc3ccc(-c4ccccc4-c4nn[n-]n4)cc3)c2c1.[K+] (stereo unspecified) here?
**A.** 56%

**Q.** What about the IC50 [2] of the same compound?
**A.** 0.002 µM

**Q.** And the IC50 [3]?
**A.** 0.0029 µM

**Q.** For CCCCc1nc2cc(C3=NN(Cc4ccc(-c5ccccc5-c5nn[nH]n5)cc4)C(=O)CC3C)ccc2[nH]1 (stereo unspecified), which IC50 [1] is on record?
**A.** 7 µM

**Q.** Which IC50 [1] does the source give for COc1ccc(-c2nc3cc(C4=NNC(=O)CC4C)ccc3n2Cc2ccc(-c3ccccc3-c3nn[nH]n3)cc2)cc1 (stereo unspecified) here?
**A.** 5.5 µM

**Q.** What does the source list for CC1(C)CC(=O)NN=C1c1ccc2nc(C3CC3)n(Cc3ccc(-c4ccccc4-c4nn[n-]n4)cc3)c2c1.[K+]?
**A.** Inhibition [4]: 80%; IC50 [2]: 0.004 µM; IC50 [3]: 0.0034 µM

**Q.** COC(=O)c1ccccc1CN1N=C(c2ccc3nc(C4CC4)n(Cc4ccc(-c5ccccc5-c5nn[nH]n5)cc4)c3c2)C(C)CC1=O (stereo unspecified) was tested. Which IC50 [3] did it give?
**A.** 0.0065 µM

**Q.** Which IC50 [1] does the source give for COc1ccc(-c2nc3ccc(C4=NNC(=O)CC4C)cc3[nH]2)cc1 (stereo unspecified) [PIMOBENDAN] here?
**A.** 17 µM

**Q.** With CCCCc1nc2ccc(-c3nnc(O)cc3C)cc2n1Cc1ccc(-c2ccccc2-c2nn[nH]n2)cc1 as the compound, how does the IC50 [3] read?
**A.** 0.0044 µM

**Q.** For Cc1cc(=O)n(CC(=O)N(C)C)nc1-c1ccc2nc(C3CC3)n(Cc3ccc(-c4ccccc4-c4nn[n-]n4)cc3)c2c1.[K+], which IC50 [3] is on record?
**A.** 0.0036 µM

**Q.** For COc1ccc(-c2nc3cc(C4=NN(Cc5ccc(-c6ccccc6-c6nn[nH]n6)cc5)C(=O)CC4C)ccc3[nH]2)cc1 (stereo unspecified), which IC50 [1] is on record?
**A.** 54 µM

**Q.** How did the Inhibition [4] turn out when CC1CC(=O)NN=C1c1ccc2nc(C3CC3)n(Cc3ccc(-c4ccccc4-c4nn[nH]n4)cc3)c2c1 (stereo unspecified) was run?
**A.** 80%

**Q.** What about the IC50 [2] of the same compound?
**A.** 0.002 µM

**Q.** And the IC50 [3]?
**A.** 0.0018 µM

**Q.** With CN(C)C(=O)CN1N=C(c2ccc3nc(C4CC4)n(Cc4ccc(-c5ccccc5-c5nn[n-]n5)cc4)c3c2)C(C)(C)CC1=O.[K+] as the compound, how does the IC50 [2] read?
**A.** 0.002 µM

**Q.** And the IC50 [3]?
**A.** 0.0047 µM

**Q.** With Cc1cc(O)nnc1-c1ccc2nc(C3CC3)n(Cc3ccc(-c4ccccc4-c4nn[nH]n4)cc3)c2c1 as the compound, how does the Inhibition [4] read?
**A.** 40%

**Q.** What about the IC50 [2] of the same compound?
**A.** 0.003 µM

**Q.** What about the IC50 [3] of the same compound?
**A.** 0.0018 µM

**Q.** How did the IC50 [3] turn out when CCCCc1nc2ccc(C3=NNC(=O)CC3)cc2n1Cc1ccc(-c2ccccc2-c2nn[nH]n2)cc1 was run?
**A.** 0.005 µM

**Q.** Which IC50 [2] does the source give for CCCc1nc2ccc(C3=NN(CC(=O)N(C)C)C(=O)CC3)cc2n1Cc1ccc(-c2ccccc2-c2nn[n-]n2)cc1.[K+] here?
**A.** 0.002 µM

**Q.** And the IC50 [3]?
**A.** 0.0017 µM

**Q.** For CCCCc1nc2cc(C3=NNC(=O)CC3C)ccc2n1Cc1ccc(-c2ccccc2-c2nnn[nH]2)cc1 (stereo unspecified), which IC50 [1] is on record?
**A.** 0.161 µM

**Q.** With COC(=O)CN1N=C(c2ccc3nc(C4CC4)n(Cc4ccc(-c5ccccc5-c5nn[nH]n5)cc4)c3c2)C(C)CC1=O (stereo unspecified) as the compound, how does the Inhibition [4] read?
**A.** 57%

**Q.** And the IC50 [2]?
**A.** 0.004 µM

**Q.** And the IC50 [3]?
**A.** 0.0032 µM
